Assay results as given in paper PMC8913300, “Two distinct classes of cochaperones compete for the EEVD motif in heat shock protein 70 to tune its chaperone activities” (The Journal of Biological Chemistry, 2022).

Key:
Hsp72–DnaJB4 complex [1] = assay: Luciferase refolding by Hsp72/DnaJB4 in the presence of TPR cochaperones; assay type: biochemical; details: 1 μM Hsp72, 100 nM denatured luciferase, 120 nM DnaJB4; CHIP titration or 10 μM TPR protein; 1 h at 37 °C
Procedure: Experiments were performed as described ([14]). Briefly, Renilla luciferase (Promega) was denatured in 8 M GdnHCl for 2 h at room temperature. Hsp72 (1 μM) and denatured luciferase (100 nM) were diluted into a working concentration in buffer containing an ATP regenerating system (23 mM Hepes, 120 mM KAc, 1.2 mM MgAc, 15 mM DTT, 61 mM creatine phosphate, 35 units/ml creatine kinase, and 5 ng/μl bovine serum albumin, pH 7.4). A titration series of DnaJB4 was added, and the reaction was initiated with the addition of 2.5 mM ATP. For competition assays with DnaJB4, complexes of Hsp72 (1 μM), denatured luciferase (100 nM), and DnaJB4 (120 nM) were incubated with either a titration of CHIP or 10 μM of indicated TPR protein. In all cases, the assay was allowed to incubate for 1 h at 37 °C in white, 96-well flat-bottom plates (Corning 3990). Luminescence was measured using the SteadyGlo luminescence reagent (Promega), and percent refolded luciferase was calculated using a standard curve of 100 to 0 nM native luciferase.

Hsp72–DnaJB4 complex [2] = assay: CHIP inhibition of DnaJB4-stimulated Hsp72 ATPase activity; assay type: biochemical; details: 25 μM CHIP, 40-fold excess relative to DnaJB4 (625 nM)
Procedure: ATPase assays were carried out using the malachite green assay as described ([14], [83]). In brief, 1 μM Hsp72 and various concentrations of DnaJB4 were added to clear 96-well plates, and the reactions were initiated by addition of 2.5 mM ATP. Reactions were allowed to proceed for 1 h at 37 °C, after which they were developed using malachite green reagent and quenched with sodium citrate. Plate absorbance was measured at 620 nm, and a standard curve of sodium phosphate was used to convert the absorbance values to pmol ATP/μM Hsp72/min. Vmax and Km, app were derived as fit parameters to a modified Michaelis–Menten model (ATPase rate=Vmax∗[DnaJB4]/(Km, app+[DnaJB4])) where Vmax reflects the maximal increased ATP hydrolysis conferred by DnaJB4 binding and Km,app represents the half-maximal concentration of DnaJB4 binding to and stimulating the ATPase activity of Hsp72.

DnaJB4 = target: T1, DnaJB4 (Homo sapiens, UniProt Q9UDY4); assay: Fluorescence polarization saturation binding of Hsp72 tracer to DnaJB4; details: Fig. 8A right; FP saturation binding, 20 nM tracer, JDP binding buffer pH 8.0, 30 min room temperature; mean with 95% confidence interval, four replicates
T1 construct: 6-His with TEV-cleavable linker (N, cleaved yes); made in house; host or cells: Escherichia coli BL21 (DE3) Rosetta
Procedure: (§1) All FP experiments were performed in 384-well, black, low-volume, round-bottom plates at a final assay volume of 18 μl (Corning 4511). Polarization values in millipolarization units (mP) were measured at an excitation wavelength of 485 nm and an emission wavelength of 525 nm, with 100 flashes per read using a Spectramax M5 plate reader (Molecular Devices). All experiments were performed 2 times in quadruplicate. Experimental data were analyzed using GraphPad Prism 9. Saturation binding data were background subtracted, and curves were fit using the model [Agonist] versus response (three parameters). For competition experiments, data were background subtracted to tracer alone and normalized to DMSO control to determine relative tracer displacement.
(§2) A sample of 20 nM Hsp72 tracers (FITC-Ahx-GSGPTIEEVD or FITC-Ahx-GSGPEIEEVD) was incubated with various concentrations of DnaJB4 (WT or QPD mutant) or CHIP in 2× dilutions (final [protein] = 110–0.013 μM) in binding buffer (JDP binding buffer = 50 mM Tris, 15 mM NaCl, 1 mM DTT, 0.01% Triton X-100, pH 8.0; CHIP binding buffer = 25 mM Hepes, 50 mM KCl, 0.01% Triton X-100, pH 7.4). The plate was covered from light and allowed to incubate at room temperature for 30 min prior to reading.

DnaJB4 QPD mutant = target: T2, DnaJB4 QPD mutant (Homo sapiens, UniProt Q9UDY4, H32Q); assay: Fluorescence polarization saturation binding of Hsp72 tracer to DnaJB4 QPD mutant; details: Fig. 2D, FP saturation binding, 20 nM tracer, 30 min room temperature, mean with 95% confidence interval, four replicates
T2 construct: 6-His with TEV-cleavable linker (N, cleaved yes); made in house; host or cells: Escherichia coli BL21 (DE3) Rosetta
Procedure: as §1, §2

T1 sequence (Q9UDY4 whole entry): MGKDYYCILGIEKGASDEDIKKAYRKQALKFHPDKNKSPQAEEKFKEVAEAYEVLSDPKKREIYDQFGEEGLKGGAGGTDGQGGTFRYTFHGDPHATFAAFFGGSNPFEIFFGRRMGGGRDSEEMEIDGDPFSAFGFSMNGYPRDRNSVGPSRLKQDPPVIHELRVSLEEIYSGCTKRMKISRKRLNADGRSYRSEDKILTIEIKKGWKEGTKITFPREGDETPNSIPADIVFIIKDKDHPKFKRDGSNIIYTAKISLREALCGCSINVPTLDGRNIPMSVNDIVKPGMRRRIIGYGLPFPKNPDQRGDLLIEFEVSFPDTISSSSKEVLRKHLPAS
T2 sequence (Q9UDY4 whole entry H32Q): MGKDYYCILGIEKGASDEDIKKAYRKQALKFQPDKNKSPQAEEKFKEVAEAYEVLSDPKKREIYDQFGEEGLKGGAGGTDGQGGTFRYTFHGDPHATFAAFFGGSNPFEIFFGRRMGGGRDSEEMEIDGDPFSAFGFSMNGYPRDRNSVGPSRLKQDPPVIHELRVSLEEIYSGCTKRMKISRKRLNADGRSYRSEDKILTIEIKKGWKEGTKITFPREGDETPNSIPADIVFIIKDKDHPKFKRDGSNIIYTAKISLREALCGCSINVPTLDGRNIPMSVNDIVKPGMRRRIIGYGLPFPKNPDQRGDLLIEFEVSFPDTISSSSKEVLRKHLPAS

Row | effect on client (luciferase) refolding by Hsp72–DnaJB4 (Hsp72–DnaJB4 complex [1]) | inhibition of DnaJB4-stimulated ATPase activity (Hsp72–DnaJB4 complex [2]) | Kd (DnaJB4) [nM] | Kd (DnaJB4 QPD mutant) [nM] | Compound
1 | potent inhibitor | significant inhibition |  |  | CHIP: C terminus of Hsc70 interacting protein, E3 ubiquitin ligase, TPR cochaperone, recombinant human
2 |  |  | 1970 ± 280 | 2440 ± 280 | CC[C@H](C)[C@H](NC(=O)[C@@H](NC(=O)[C@@H]1CCCN1C(=O)CNC(=O)[C@H](CO)NC(=O)CNC(=O)CCCCCNC(=S)Nc1ccc2c(c1)C(=O)OC21c2ccc(O)cc2Oc2cc(O)ccc21)[C@@H](C)O)C(=O)N[C@@H](CCC(=O)O)C(=O)N[C@@H](CCC(=O)O)C(=O)N[C@H](C(=O)N[C@@H](CC(=O)O)C(=O)O)C(C)C [Hsp72 tracer]
